Measurements published in patent publication US20200407717A1, “METHODS OF MODULATING ANTISENSE ACTIVITY” (Ionis Pharmaceuticals, Inc., priority 2018, published 2020).
e = 2'-O-(2-methoxyethyl) (MOE); d = 2'-deoxy (DNA)

Test system: Drosha mRNA
Experiment: Antisense activity by RT-qPCR, Drosha, A431 cells
Assay type: cell-based, Human
Protocol: A431 cells were grown at 10,000 cells per well and pre-treated with a variety of growth factors to determine if the addition of exogenous growth factors affects antisense activity or uptake of modified antisense oligonucleotides in a cell. The growth factors used were EGF, insulin growth factor (IGF), transforming growth factor (TGF), […] (VEGF), hepatocyte growth factor (HGF), platelet growth factor (PGF) and fibroblasts growth factor (FGF). To test antisense activity, cells were treated for 4 hours with a growth factor or vehicle alone, and then treated with compound no. 25690 (complementary to Drosha), compound no. 395254 (complementary to Malat1), or vehicle alone. RNA was isolated from the cells and Drosha or Malat1 RNA levels were measured by RT-qPCR. Human primer probe set 13816 (forward sequence […], designated herein as SEQ ID NO: 3; reverse sequence […], designated herein as SEQ ID NO: 4; probe sequence […], designated herein as SEQ ID NO: 5) was used to measure Drosha mRNA levels and primer probe set RTS2736 (forward sequence […], designated herein as SEQ ID NO: 6; reverse sequence […], designated herein as SEQ ID NO: 7; probe sequence TGCCACATCGCCACCCCGT, designated herein as SEQ ID NO: 8) was used to measure Malat1 RNA levels. Drosha and Malat1 RNA levels were normalized to total RNA content, as measured by RIBOGREEN®. Results are presented in the tables below as normalized RNA levels, relative to untreated control cells.
A431 cells were treated with EGF or TGF at 200 ng/mL in the presence or absence of 1 μM of the EGFR tyrosine kinase inhibitor PD174265. The cells were then treated with compound no. 25690 or compound no. 395254 as in Example 8. Total RNA was isolated and analyzed by RT-qPCR, as in Example 8.
Following siRNA treatment, cells were treated with compound no. 25690 or compound no. 395254 in the presence or absence of EGF. 16 hours after treatment with a PS-ASO with or without EGF, cells were harvested, and RNA levels were analyzed via RT-qPCR as in Example 8.

Sequence: AGGAAGGAAGCTGGCGATCT (sugars from the 5' end e5 d10 e5, all phosphorothioate, methylation of C not given here) [compound 25690]
- Drosha mRNA (% Control) (6250 nM, Control): 66.2 % Control
- Drosha mRNA (% Control) (6250 nM, Control Luciferase siRNA): 35.2 % Control
- Drosha mRNA (% Control) (6250 nM, Control Luciferase siRNA, Table 26): 47.8 % Control
- Drosha mRNA (% Control) (6250 nM, Control luciferase + EGF): 40.9 % Control
- Drosha mRNA (% Control) (6250 nM, Control, Table 20): 54.0 % Control
- Drosha mRNA (% Control) (6250 nM, EGF): 48.4 % Control
- Drosha mRNA (% Control) (6250 nM, EGF+PD174265): 64.7 % Control
- Drosha mRNA (% Control) (6250 nM, EGFR siRNA-1): 41.9 % Control
- Drosha mRNA (% Control) (6250 nM, EGFR siRNA-2): 39.2 % Control
- Drosha mRNA (% Control) (6250 nM, EGFR siRNA-2 + EGF): 62.5 % Control
- Drosha mRNA (% Control) (6250 nM, EGFR siRNA-2, Table 26): 64.8 % Control
- Drosha mRNA (% Control) (6250 nM, TGF): 43.1 % Control
- Drosha mRNA (% Control) (6250 nM, TGF+PD174265): 57.0 % Control
- Drosha mRNA (% Control) (10000 nM, Control): 48.2 % Control
- Drosha mRNA (% Control) (10000 nM, EGF): 27.7 % Control
- Drosha mRNA (% Control) (10000 nM, TGF): 29.7 % Control
- Drosha mRNA (% Control) (12500 nM, Control): 56.4 % Control
- Drosha mRNA (% Control) (12500 nM, Control Luciferase siRNA): 29.3 % Control
- Drosha mRNA (% Control) (12500 nM, Control Luciferase siRNA, Table 26): 41.0 % Control
- Drosha mRNA (% Control) (12500 nM, Control luciferase + EGF): 30.9 % Control
- Drosha mRNA (% Control) (12500 nM, Control, Table 20): 47.6 % Control
- Drosha mRNA (% Control) (12500 nM, EGF): 40.1 % Control
- Drosha mRNA (% Control) (12500 nM, EGF+PD174265): 53.6 % Control
- Drosha mRNA (% Control) (12500 nM, EGFR siRNA-1): 32.4 % Control
- Drosha mRNA (% Control) (12500 nM, EGFR siRNA-2): 39.1 % Control
- Drosha mRNA (% Control) (12500 nM, EGFR siRNA-2 + EGF): 47.1 % Control
- Drosha mRNA (% Control) (12500 nM, EGFR siRNA-2, Table 26): 49.2 % Control
- Drosha mRNA (% Control) (12500 nM, TGF): 29.7 % Control
- Drosha mRNA (% Control) (12500 nM, TGF+PD174265): 44.9 % Control
- Drosha mRNA (% Control) (20000 nM, Control): 48.8 % Control
- Drosha mRNA (% Control) (20000 nM, EGF): 25.4 % Control
- Drosha mRNA (% Control) (20000 nM, TGF): 25.5 % Control
- Drosha mRNA (% Control) (25000 nM, Control): 45.2 % Control
- Drosha mRNA (% Control) (25000 nM, Control Luciferase siRNA): 24.0 % Control
- Drosha mRNA (% Control) (25000 nM, Control Luciferase siRNA, Table 26): 37.2 % Control
- Drosha mRNA (% Control) (25000 nM, Control luciferase + EGF): 27.1 % Control
- Drosha mRNA (% Control) (25000 nM, Control, Table 20): 38.9 % Control
- Drosha mRNA (% Control) (25000 nM, EGF): 40.1 % Control
- Drosha mRNA (% Control) (25000 nM, EGF+PD174265): 51.2 % Control
- Drosha mRNA (% Control) (25000 nM, EGFR siRNA-1): 29.9 % Control
- Drosha mRNA (% Control) (25000 nM, EGFR siRNA-2): 35.5 % Control
- Drosha mRNA (% Control) (25000 nM, EGFR siRNA-2 + EGF): 41.2 % Control
- Drosha mRNA (% Control) (25000 nM, EGFR siRNA-2, Table 26): 42.3 % Control
- Drosha mRNA (% Control) (25000 nM, TGF): 23.5 % Control
- Drosha mRNA (% Control) (25000 nM, TGF+PD174265): 37.1 % Control
- Drosha mRNA (% Control) (40000 nM, Control): 44.3 % Control
- Drosha mRNA (% Control) (40000 nM, EGF): 23.6 % Control
- Drosha mRNA (% Control) (40000 nM, TGF): 22.7 % Control
- Drosha mRNA (% Control) (50000 nM, Control): 40.2 % Control
- Drosha mRNA (% Control) (50000 nM, Control Luciferase siRNA): 22.4 % Control
- Drosha mRNA (% Control) (50000 nM, Control Luciferase siRNA, Table 26): 33.1 % Control
- Drosha mRNA (% Control) (50000 nM, Control luciferase + EGF): 23.2 % Control
- Drosha mRNA (% Control) (50000 nM, Control, Table 20): 28.2 % Control
- Drosha mRNA (% Control) (50000 nM, EGF): 35.1 % Control
- Drosha mRNA (% Control) (50000 nM, EGF+PD174265): 45.3 % Control
- Drosha mRNA (% Control) (50000 nM, EGFR siRNA-1): 25.7 % Control
- Drosha mRNA (% Control) (50000 nM, EGFR siRNA-2): 31.2 % Control
- Drosha mRNA (% Control) (50000 nM, EGFR siRNA-2 + EGF): 31.3 % Control
- Drosha mRNA (% Control) (50000 nM, EGFR siRNA-2, Table 26): 29.3 % Control
- Drosha mRNA (% Control) (50000 nM, TGF): 17.2 % Control
- Drosha mRNA (% Control) (50000 nM, TGF+PD174265): 35.2 % Control
- Drosha mRNA (% Control) (100000 nM, Control): 39.2 % Control
- Drosha mRNA (% Control) (100000 nM, Control Luciferase siRNA): 19.7 % Control
- Drosha mRNA (% Control) (100000 nM, Control Luciferase siRNA, Table 26): 32.1 % Control
- Drosha mRNA (% Control) (100000 nM, Control luciferase + EGF): 21.0 % Control
- Drosha mRNA (% Control) (100000 nM, Control, Table 20): 25.2 % Control
- Drosha mRNA (% Control) (100000 nM, EGF): 32.9 % Control
- Drosha mRNA (% Control) (100000 nM, EGF+PD174265): 35.2 % Control
- Drosha mRNA (% Control) (100000 nM, EGFR siRNA-1): 24.1 % Control
- Drosha mRNA (% Control) (100000 nM, EGFR siRNA-2): 28.4 % Control
- Drosha mRNA (% Control) (100000 nM, EGFR siRNA-2 + EGF): 30.4 % Control
- Drosha mRNA (% Control) (100000 nM, EGFR siRNA-2, Table 26): 31.2 % Control
- Drosha mRNA (% Control) (100000 nM, TGF): 15.2 % Control
- Drosha mRNA (% Control) (100000 nM, TGF+PD174265): 30.2 % Control
- Drosha mRNA (% Control) (200000 nM, Control): 30.2 % Control
- Drosha mRNA (% Control) (200000 nM, Control Luciferase siRNA): 14.9 % Control
- Drosha mRNA (% Control) (200000 nM, Control Luciferase siRNA, Table 26): 25.2 % Control
- Drosha mRNA (% Control) (200000 nM, Control luciferase + EGF): 21.4 % Control
- Drosha mRNA (% Control) (200000 nM, Control, Table 20): 21.2 % Control
- Drosha mRNA (% Control) (200000 nM, EGF): 25.1 % Control
- Drosha mRNA (% Control) (200000 nM, EGF+PD174265): 33.2 % Control
- Drosha mRNA (% Control) (200000 nM, EGFR siRNA-1): 18.5 % Control
- Drosha mRNA (% Control) (200000 nM, EGFR siRNA-2): 20.8 % Control
- Drosha mRNA (% Control) (200000 nM, EGFR siRNA-2 + EGF): 25.1 % Control
- Drosha mRNA (% Control) (200000 nM, EGFR siRNA-2, Table 26): 26.1 % Control
- Drosha mRNA (% Control) (200000 nM, TGF): 15.2 % Control
- Drosha mRNA (% Control) (200000 nM, TGF+PD174265): 27.2 % Control
- IC50 (Control (no growth factor), Table 15): 1.47 ± 0.05 µM
- IC50 (Control Luciferase siRNA, Table 24): 1.31 ± 0.04 µM
- IC50 (Control Luciferase siRNA, Table 26): 1.5 ± 0.05 µM
- IC50 (Control luciferase + EGF, Table 26): 0.63 ± 0.04 µM
- IC50 (Control, Table 18): 1.62 ± 0.09 µM
- IC50 (Control, Table 20): 1.39 ± 0.06 µM
- IC50 (EGF 200 ng/mL + 1 μM PD174265, Table 18): 1.5 ± 0.05 µM
- IC50 (EGF 200 ng/mL, Table 18): 0.58 ± 0.07 µM
- IC50 (EGF pre-treatment 4 hours, Table 15): 0.6 ± 0.08 µM
- IC50 (EGFR siRNA-1, Table 24): 2.11 ± 0.1 µM
- IC50 (EGFR siRNA-2 + EGF, Table 26): 2.33 ± 0.11 µM
- IC50 (EGFR siRNA-2, Table 24): 2.79 ± 0.07 µM
- IC50 (EGFR siRNA-2, Table 26): 2.73 ± 0.1 µM
- IC50 (TGF 200 ng/mL + 1 μM PD174265, Table 20): 1.49 ± 0.04 µM
- IC50 (TGF 200 ng/mL, Table 20): 0.5 ± 0.04 µM
- IC50 (TGF pre-treatment 4 hours, Table 15): 0.59 ± 0.07 µM
- half maximal inhibitory concentration, Drosha (cells treated with IGF, FGF, HGF, VEGF or PGF relative to PS-ASO alone (data not shown)): unchanged
